Source: US5369095A, “Compositions and method comprising substituted glycosides as mucus membrane permeation enhancers” (priority 1993, dated 1994)

Tests used:
[1] = Apparent permeability coefficient through excised cornea mounted between diffusion cells; type: in vitro ADME, Albino rabbits
Description: Albino rabbits were sacrificed, and within 15 minutes, the corneas were mounted and clamped between diffusion cells according to the published procedure by Schoenwald et al. (J. Pharm. Sci. 72, 1266, 1983). 7 ml of bicarbonated Ringer's solution containing reduced glutathione was added to the endothelial side to serve as the receiver solution. An equal volume of the same solution containing Atenolol, a β-blocker, with or without dodecyl maltoside (DDM) was added to the epithelial side to serve as the donor solution. The apparent permeability coefficient was calculated from the average cumulative amount of drug penetrating through the cornea over time according to Schoenwald.
The procedure in Example 8 was repeated with the following para-amino clonidine formulations.
The procedure of Example 8 was repeated with Atenolol except dodecyl maltoside was substituted with 0.1% amount by weight of each of the following substituted glycosides of this invention and the following results were obtained.

[2] = Penetration of para-aminoclonidine through the cornea: amount in aqueous humor after topical dosing, liquid scintillation counting; type: in vivo, New Zealand albino rabbits; conditions: 60 minutes; 0.125% para-amino-clonidine with 0.05% dodecyl maltoside versus drug without dodecyl maltoside; 30 ul topical
Description: Nine New Zealand albino rabbits were selected for evaluation of the penetration through the cornea of the para-amino-clonidine formulation set forth above. All rabbits received 30 ul of the 0.125% para-amino-clonidinetopically in both eyes. Three rabbits were sacrificed at 20 minutes from dosing and aqueous humor was withdrawn from their eyes. The aqueous humor as assayed by liquid scintillation counting to determine the amount of para-amino-clonidine in the aqueous humor. The same procedure was done on 3 different rabbits at 60 minutes from dosing and on another 3 rabbits, 120 minutes from dosing. […] Aqueous humor was withdrawn and assayed as explained above.
Nine New Zealand albino rabbits were selected for evaluation of the penetration through the cornea of the para-amino-clonidine formulation set forth above. All rabbits received 30 ul of the 0.125% para-amino-clonidinetopically in both eyes. Three rabbits were sacrificed at 20 minutes from dosing and their aqueous humor was withdrawn from their eyes. The aqueous humor was assayed by liquid scintillation counting to determine the amount of para-amino-clonidine in the aqueous humor. The same procedure was done on three different rabbits at 60 minutes from dosing and on another three rabbits, 120 minutes from dosing. […] Aqueous humor was withdrawn and assayed as explained above.

Permeability Coefficient ([1]; rabbit)	permeation for para-amino clonidine as compared to control [1]	increase in the amount of para-aminoclonidine found in the aqueous humor [2]	Molecule
14.0 cm/sec × 10^-6			Lysophosphatidyl Inositol
	superior permeation	four	CCCCCCCCCCCCO[C@@H]1O[C@H](CO)[C@@H](O[C@H]2O[C@H](CO)[C@@H](O)[C@H](O)[C@H]2O)[C@H](O)[C@H]1O [dodecyl maltoside, Dodecyl maltoside]
